Test results: ChEMBL document CHEMBL1201862, “PubChem BioAssay data set” (2004)
Where a name gives a salt, the structure may show the parent alone. Activity calls are given as the source filed them.

Key:
Genome polyprotein = Genome polyprotein (dengue virus type 2, UniProt P29990); assay: Dengue-2 NS5 methyltransferase inhibitors, primary screen, biochemical, confirmation dose response (AID 588689); type: functional
[1] = molecular target: Glutathione-S-transferase (Schistosoma japonicum, UniProt Q26513); assay: biotin-GST/anti-GST TR-FRET signal inhibitors, dose response, artefact control for Vif-APOBEC3G degradation inhibitor project, biochemical (AID 1117362); type: functional
[2] = molecular target: T1, Tyrosyl-DNA phosphodiesterase 2 (Homo sapiens, UniProt O95551); assay: human TDP2 enzyme inhibitors, dose response, biochemical, epi absorbance, IC50 (AID 743297)
T1 sequence (O95551 whole entry): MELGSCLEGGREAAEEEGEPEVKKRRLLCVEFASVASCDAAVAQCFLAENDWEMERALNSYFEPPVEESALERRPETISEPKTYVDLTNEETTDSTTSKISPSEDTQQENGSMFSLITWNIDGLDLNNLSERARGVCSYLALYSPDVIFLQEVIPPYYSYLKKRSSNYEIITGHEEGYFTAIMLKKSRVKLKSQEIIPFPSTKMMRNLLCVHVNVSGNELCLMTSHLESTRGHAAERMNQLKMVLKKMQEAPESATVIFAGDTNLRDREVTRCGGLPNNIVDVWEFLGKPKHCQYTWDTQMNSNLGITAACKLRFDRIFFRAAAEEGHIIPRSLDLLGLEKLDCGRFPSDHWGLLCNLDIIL

[3] = molecular target: T2, Histone-lysine N-methyltransferase NSD2 (Homo sapiens, UniProt O96028); type: biochemical
T2 sequence (O96028 whole entry): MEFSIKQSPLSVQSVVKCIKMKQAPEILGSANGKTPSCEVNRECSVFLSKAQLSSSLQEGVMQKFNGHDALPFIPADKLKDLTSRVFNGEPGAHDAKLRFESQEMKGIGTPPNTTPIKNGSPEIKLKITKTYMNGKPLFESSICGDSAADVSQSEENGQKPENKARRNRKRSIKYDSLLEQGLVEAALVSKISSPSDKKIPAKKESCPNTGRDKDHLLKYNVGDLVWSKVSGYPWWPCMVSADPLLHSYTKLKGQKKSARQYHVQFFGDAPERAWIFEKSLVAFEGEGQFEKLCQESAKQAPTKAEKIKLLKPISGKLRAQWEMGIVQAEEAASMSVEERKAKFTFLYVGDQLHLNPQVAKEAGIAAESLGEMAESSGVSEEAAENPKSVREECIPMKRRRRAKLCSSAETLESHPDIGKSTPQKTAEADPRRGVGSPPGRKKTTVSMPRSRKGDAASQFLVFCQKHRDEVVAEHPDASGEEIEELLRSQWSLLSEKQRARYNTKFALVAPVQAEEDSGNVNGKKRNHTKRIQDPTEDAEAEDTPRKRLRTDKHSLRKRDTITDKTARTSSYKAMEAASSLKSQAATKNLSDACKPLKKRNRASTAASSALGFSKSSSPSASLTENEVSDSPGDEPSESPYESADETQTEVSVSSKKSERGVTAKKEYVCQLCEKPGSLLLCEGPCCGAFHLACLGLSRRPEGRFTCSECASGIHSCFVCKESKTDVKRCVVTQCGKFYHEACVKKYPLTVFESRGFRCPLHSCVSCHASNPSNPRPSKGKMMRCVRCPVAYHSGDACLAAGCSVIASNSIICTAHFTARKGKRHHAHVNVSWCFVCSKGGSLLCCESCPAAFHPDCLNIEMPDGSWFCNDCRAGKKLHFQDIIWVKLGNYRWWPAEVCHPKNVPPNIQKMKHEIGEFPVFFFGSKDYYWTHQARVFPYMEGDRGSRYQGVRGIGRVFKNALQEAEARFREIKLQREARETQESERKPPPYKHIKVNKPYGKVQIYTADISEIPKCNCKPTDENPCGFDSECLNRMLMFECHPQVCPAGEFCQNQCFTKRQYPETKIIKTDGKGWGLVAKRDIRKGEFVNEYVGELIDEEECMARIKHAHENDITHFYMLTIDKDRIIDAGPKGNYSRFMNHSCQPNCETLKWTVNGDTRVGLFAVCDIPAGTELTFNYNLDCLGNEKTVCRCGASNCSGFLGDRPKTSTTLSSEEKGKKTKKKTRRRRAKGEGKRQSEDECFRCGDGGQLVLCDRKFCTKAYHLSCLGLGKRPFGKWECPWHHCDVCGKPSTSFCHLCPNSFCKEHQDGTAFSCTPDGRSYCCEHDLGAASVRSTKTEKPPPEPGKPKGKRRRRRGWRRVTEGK

[4] = molecular target: T3, Long-chain-fatty-acid--AMP ligase FadD28 (Mycobacterium tuberculosis, UniProt P9WQ59); assay: Fluorescence polarization aasay to screen for inhibitors that compete for the binding of FadD28 to a bisubstrate Measured in Biochemical System Using Plate Reader - 2147-01_Inhibitor_Dose_CherryPick_Activity.; type: functional, Mycobacterium tuberculosis H37Rv
T3 sequence (P9WQ59 whole entry): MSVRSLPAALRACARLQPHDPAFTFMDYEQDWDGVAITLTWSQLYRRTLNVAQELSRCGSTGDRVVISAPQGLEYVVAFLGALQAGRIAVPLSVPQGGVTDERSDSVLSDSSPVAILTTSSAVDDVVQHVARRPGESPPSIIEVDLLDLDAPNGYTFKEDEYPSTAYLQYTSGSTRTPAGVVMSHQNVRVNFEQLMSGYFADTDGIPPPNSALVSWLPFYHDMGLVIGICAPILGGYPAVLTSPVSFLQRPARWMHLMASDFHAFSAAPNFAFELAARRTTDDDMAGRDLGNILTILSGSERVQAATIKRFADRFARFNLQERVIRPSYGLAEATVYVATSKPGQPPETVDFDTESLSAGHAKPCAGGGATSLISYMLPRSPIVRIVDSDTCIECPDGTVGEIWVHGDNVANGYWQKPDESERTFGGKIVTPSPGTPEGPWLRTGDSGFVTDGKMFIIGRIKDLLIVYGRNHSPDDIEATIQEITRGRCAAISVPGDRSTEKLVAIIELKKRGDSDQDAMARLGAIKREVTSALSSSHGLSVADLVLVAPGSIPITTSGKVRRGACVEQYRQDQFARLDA

Phospholipase A2 = Phospholipase A2 (Homo sapiens, UniProt P04054); type: functional;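 also: confirmatory dose-response counterscreen on phospholipase A2, testing hits that came from an ultra-high-throughput screen for ATG4B inhibitors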
Cysteine protease ATG4B = molecular target: T4, Cysteine protease ATG4B (Homo sapiens, UniProt Q9Y4P1); type: functional;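 also: Fluorescence-based dose-response confirmation assay measuring inhibition of ATG4B activity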
T4 sequence (Q9Y4P1 whole entry): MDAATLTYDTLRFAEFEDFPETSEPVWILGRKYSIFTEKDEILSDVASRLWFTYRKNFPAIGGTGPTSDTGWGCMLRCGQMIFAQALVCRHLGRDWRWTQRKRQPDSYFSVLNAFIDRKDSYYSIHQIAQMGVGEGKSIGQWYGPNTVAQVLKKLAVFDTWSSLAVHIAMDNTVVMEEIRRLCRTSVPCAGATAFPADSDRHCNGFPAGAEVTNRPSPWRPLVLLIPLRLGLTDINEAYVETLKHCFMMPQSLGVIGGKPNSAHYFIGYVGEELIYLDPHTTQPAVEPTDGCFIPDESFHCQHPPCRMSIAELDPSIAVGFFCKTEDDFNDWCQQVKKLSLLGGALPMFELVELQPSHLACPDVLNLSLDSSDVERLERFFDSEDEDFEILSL

Vero [5] = assay: Vero cell cytotoxicity, cytotoxicity control for flavivirus capping enzyme inhibitors (AID 588742); type: functional; settings: Chlorocebus sabaeus
[6] = THP-1 cell cytotoxicity, dose response, cytotoxicity control for Vif-APOBEC3G degradation inhibitor project, THP-1 cells (AID 1117359); type: functional; settings: Human immunodeficiency virus 1, THP-1
[7] = molecular target: Dual specificity tyrosine-phosphorylation-regulated kinase 1A (Rattus norvegicus, UniProt Q63470); type: biochemical, Homo sapiens
[8] = molecular target: Aryl hydrocarbon receptor (Homo sapiens, UniProt P35869); assay: Luminescence-based cell-based high throughput dose response assay for activators of the Aryl Hydrocarbon Receptor (AHR). [Related pubchem assays: 2796 (Primary screen (AHR activators in singlicate)), 2845 (Confirmation screen (AHR activators in triplicate)), 434939 (Counterscreen (PXR activators in triplicate)), 2804 (Summary (AHR activators))]; type: ADME
[9] = molecular target: Mitogen-activated protein kinase 10 (Homo sapiens, UniProt P53779); assay: Dose response biochemical screening assay for inhibitors of c-Jun N-Terminal Kinase 3 (JNK3). [Related pubchem assays: 746 ]
[10] = M. tuberculosis growth inhibition, HTS (AID 449762); type: functional
[11] = molecular target: Peroxisome proliferator-activated receptor gamma/Nuclear receptor corepressor 2 (Homo sapiens, UniProt P37231+Q9Y618); assay: Counterscreen for NR2E3 inverse agonists: TR-FRET-based biochemical high throughput dose response assay to identify inverse agonists of the interaction between peroxisome proliferator-activated receptor gamma (PPARg) and nuclear receptor co-repressor 2 (NCOR2).; type: functional
[12] = molecular target: Photoreceptor-specific nuclear receptor (Homo sapiens, UniProt Q9Y5X4); assay: NR2E3 inverse agonists, dose response, biochemical, TR-FRET (AID 463256); type: functional
[13] = molecular target: Heat shock protein HSP 90-alpha (Homo sapiens, UniProt P07900); assay: Luminescence-based dose response biochemical high throughput screening assay for inhibitors of the Heat Shock Protein 90 (HSP90). [Related pubchem assays: 1831 (Summary AID.), 1846 (Confirmation screen.), 1789 (Primary screen.)]
[14] = Luminescence Cell-Based Dose Response HTS to Identify Activators of Luciferase Translation or Activity in H4 […] Cells. [Related pubchem assays: 1829 (Project Summary), 1814 (Primary HTS)]; type: functional
H4 = assay: Luminescence Cell-Based Dose Response HTS to Identify Activators of 5'UTR Stem-Loop Driven Prion Protein mRNA Translation in H4 Neuroglioblastoma Cells. [Related pubchem assays: 1829 (Project Summary), 1814 (Primary HTS)]; type: functional; settings: Homo sapiens
[15] = Luminescence Cell-Based Dose Confirmation HTS to Identify Activators of 5'UTR Stem-Loop Driven Alpha-Synuclein mRNA Translation in H4 Neuroglioblastoma Cells. [Related pubchem assays: 1829 (Project Summary), 1814 (Primary HTS)]; type: functional
Vero [16] = assay: West Nile virus antiviral activity, cell-based, CPE readout (AID 1621); type: functional; settings: Chlorocebus sabaeus
cells [17] = type: functional, cell-based; settings: INS-1E
[18] = Dose-response inhibition of insulin secretion in a rat insulinoma line at 5 mM glucose (AID 1117331); type: functional, cell-based; settings: INS-1E
Cytochrome P450 2C19 = Cytochrome P450 2C19 (Homo sapiens, UniProt P33261); assay: qHTS Assay for Inhibitors and Substrates of Cytochrome P450 2C19. [Related pubchem assays: 410 ]; type: ADME; settings: read-out: Potency
[19] = HepG2 cell cytotoxicity, dose response, cytotoxicity control, ATP luminescence, dry powder, set 2 (AID 743129); type: functional, cell-based
[20] = HEK293 cell cytotoxicity, dose response, cytotoxicity control, ATP luminescence, dry powder, set 3 (AID 743131); type: functional, cell-based
[21] = SNU-C1 cell viability reduction, dose response, CellTiter-Glo luminescence (AID 1117323); type: functional, cell-based
[22] = RKO cell viability reduction, dose response, CellTiter-Glo luminescence (AID 1117322); type: functional
[23] = HCT116 cell viability decrease, GSK3B pretreatment – CellTiter-Glo, IC50, dose response (AID 1117339); type: functional; settings: HCT-116
[24] = cytotoxicity toward HT-29 cells – cell-based, CellTiter-Glo luminescence, IC50, dose response (AID 1117330); type: functional
[25] = cytotoxicity toward Colo320 cells – cell-based, CellTiter-Glo luminescence, IC50, dose response (AID 1117334); type: functional; settings: COLO 320
[26] = CellTiter-Glo luminescent dose response of DLD-1 viability loss (AID 1117352); type: functional
[27] = Concentration-dependent survival of SW480 colon cancer line, luminescence detection with CellTiter-Glo, half-maximal inhibitory concentration (AID 1117338); type: functional
[28] = A549 cell cytotoxicity, dose response, cytotoxicity control, plate reader, dry powder, set 6 (AID 743312); type: functional, cell-based
cells [29] = settings: HEK293
[30] = HepG2 cell cytotoxicity, dose response, cytotoxicity control, plate reader, dry powder, set 6 (AID 743311); type: functional, cell-based

Chain of Cytochrome P450 2C19 (P33261 whole entry): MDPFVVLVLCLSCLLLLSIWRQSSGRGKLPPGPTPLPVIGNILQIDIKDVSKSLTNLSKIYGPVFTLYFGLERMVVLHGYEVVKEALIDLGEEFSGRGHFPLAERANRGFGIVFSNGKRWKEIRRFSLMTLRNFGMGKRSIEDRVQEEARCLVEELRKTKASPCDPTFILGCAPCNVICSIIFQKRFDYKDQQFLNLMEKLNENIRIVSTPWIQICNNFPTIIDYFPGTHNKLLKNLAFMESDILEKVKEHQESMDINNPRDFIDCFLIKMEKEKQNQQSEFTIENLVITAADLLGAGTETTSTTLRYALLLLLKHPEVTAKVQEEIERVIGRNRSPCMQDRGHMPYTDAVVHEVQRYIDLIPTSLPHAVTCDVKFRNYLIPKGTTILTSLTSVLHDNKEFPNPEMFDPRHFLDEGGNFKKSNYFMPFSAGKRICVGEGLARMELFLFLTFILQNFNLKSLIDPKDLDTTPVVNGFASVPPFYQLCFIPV
Chain of Photoreceptor-specific nuclear receptor (Q9Y5X4 whole entry): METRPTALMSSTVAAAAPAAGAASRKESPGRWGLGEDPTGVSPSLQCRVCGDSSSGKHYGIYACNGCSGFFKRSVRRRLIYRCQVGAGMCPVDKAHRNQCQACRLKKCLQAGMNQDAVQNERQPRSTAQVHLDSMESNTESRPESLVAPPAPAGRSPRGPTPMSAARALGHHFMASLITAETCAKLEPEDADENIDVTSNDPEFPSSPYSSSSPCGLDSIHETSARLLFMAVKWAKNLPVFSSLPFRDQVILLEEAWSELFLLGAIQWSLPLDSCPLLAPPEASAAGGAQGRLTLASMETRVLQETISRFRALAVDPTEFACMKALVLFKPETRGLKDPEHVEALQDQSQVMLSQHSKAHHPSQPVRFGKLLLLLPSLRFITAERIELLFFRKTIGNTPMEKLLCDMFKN
Chain of Mitogen-activated protein kinase 10 (P53779 whole entry): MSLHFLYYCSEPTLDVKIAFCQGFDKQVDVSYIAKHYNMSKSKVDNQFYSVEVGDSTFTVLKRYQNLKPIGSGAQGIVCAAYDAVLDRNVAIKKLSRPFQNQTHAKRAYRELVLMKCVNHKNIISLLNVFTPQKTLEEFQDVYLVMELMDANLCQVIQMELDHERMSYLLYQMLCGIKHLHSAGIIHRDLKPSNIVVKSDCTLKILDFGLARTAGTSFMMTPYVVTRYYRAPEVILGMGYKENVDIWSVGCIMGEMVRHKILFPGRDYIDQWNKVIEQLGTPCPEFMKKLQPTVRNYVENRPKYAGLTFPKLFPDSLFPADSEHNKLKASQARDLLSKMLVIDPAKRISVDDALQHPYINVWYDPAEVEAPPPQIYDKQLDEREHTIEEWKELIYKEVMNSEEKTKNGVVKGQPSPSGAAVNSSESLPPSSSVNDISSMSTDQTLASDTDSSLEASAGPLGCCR
Chain of Phospholipase A2 (P04054 whole entry): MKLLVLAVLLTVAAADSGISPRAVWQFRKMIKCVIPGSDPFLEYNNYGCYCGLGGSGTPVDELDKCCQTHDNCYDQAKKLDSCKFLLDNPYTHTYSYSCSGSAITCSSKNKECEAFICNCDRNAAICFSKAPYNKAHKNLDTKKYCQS
Chain of Glutathione-S-transferase (Q26513 whole entry): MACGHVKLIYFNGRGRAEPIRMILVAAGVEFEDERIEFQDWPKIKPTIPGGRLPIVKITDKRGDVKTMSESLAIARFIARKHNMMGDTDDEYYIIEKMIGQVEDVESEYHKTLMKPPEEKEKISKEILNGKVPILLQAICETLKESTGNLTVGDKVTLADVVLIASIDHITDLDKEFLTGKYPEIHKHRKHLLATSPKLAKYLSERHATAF
Chain of Peroxisome proliferator-activated receptor gamma/Nuclear receptor corepressor 2 (P37231 whole entry): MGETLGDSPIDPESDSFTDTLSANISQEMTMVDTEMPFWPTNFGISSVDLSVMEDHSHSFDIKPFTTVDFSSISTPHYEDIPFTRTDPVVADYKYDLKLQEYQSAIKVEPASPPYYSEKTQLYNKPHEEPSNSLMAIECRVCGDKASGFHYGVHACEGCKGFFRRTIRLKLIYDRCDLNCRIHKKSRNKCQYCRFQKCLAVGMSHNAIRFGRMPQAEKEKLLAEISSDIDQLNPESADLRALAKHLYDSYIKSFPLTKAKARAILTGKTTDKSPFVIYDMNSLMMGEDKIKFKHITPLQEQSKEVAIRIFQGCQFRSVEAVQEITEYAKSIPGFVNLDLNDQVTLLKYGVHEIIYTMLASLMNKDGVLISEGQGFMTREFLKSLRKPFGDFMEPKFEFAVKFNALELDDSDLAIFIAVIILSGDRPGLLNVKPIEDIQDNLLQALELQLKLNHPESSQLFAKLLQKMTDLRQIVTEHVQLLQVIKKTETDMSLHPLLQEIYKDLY
Chain of Peroxisome proliferator-activated receptor gamma/Nuclear receptor corepressor 2 (Q9Y618 whole entry): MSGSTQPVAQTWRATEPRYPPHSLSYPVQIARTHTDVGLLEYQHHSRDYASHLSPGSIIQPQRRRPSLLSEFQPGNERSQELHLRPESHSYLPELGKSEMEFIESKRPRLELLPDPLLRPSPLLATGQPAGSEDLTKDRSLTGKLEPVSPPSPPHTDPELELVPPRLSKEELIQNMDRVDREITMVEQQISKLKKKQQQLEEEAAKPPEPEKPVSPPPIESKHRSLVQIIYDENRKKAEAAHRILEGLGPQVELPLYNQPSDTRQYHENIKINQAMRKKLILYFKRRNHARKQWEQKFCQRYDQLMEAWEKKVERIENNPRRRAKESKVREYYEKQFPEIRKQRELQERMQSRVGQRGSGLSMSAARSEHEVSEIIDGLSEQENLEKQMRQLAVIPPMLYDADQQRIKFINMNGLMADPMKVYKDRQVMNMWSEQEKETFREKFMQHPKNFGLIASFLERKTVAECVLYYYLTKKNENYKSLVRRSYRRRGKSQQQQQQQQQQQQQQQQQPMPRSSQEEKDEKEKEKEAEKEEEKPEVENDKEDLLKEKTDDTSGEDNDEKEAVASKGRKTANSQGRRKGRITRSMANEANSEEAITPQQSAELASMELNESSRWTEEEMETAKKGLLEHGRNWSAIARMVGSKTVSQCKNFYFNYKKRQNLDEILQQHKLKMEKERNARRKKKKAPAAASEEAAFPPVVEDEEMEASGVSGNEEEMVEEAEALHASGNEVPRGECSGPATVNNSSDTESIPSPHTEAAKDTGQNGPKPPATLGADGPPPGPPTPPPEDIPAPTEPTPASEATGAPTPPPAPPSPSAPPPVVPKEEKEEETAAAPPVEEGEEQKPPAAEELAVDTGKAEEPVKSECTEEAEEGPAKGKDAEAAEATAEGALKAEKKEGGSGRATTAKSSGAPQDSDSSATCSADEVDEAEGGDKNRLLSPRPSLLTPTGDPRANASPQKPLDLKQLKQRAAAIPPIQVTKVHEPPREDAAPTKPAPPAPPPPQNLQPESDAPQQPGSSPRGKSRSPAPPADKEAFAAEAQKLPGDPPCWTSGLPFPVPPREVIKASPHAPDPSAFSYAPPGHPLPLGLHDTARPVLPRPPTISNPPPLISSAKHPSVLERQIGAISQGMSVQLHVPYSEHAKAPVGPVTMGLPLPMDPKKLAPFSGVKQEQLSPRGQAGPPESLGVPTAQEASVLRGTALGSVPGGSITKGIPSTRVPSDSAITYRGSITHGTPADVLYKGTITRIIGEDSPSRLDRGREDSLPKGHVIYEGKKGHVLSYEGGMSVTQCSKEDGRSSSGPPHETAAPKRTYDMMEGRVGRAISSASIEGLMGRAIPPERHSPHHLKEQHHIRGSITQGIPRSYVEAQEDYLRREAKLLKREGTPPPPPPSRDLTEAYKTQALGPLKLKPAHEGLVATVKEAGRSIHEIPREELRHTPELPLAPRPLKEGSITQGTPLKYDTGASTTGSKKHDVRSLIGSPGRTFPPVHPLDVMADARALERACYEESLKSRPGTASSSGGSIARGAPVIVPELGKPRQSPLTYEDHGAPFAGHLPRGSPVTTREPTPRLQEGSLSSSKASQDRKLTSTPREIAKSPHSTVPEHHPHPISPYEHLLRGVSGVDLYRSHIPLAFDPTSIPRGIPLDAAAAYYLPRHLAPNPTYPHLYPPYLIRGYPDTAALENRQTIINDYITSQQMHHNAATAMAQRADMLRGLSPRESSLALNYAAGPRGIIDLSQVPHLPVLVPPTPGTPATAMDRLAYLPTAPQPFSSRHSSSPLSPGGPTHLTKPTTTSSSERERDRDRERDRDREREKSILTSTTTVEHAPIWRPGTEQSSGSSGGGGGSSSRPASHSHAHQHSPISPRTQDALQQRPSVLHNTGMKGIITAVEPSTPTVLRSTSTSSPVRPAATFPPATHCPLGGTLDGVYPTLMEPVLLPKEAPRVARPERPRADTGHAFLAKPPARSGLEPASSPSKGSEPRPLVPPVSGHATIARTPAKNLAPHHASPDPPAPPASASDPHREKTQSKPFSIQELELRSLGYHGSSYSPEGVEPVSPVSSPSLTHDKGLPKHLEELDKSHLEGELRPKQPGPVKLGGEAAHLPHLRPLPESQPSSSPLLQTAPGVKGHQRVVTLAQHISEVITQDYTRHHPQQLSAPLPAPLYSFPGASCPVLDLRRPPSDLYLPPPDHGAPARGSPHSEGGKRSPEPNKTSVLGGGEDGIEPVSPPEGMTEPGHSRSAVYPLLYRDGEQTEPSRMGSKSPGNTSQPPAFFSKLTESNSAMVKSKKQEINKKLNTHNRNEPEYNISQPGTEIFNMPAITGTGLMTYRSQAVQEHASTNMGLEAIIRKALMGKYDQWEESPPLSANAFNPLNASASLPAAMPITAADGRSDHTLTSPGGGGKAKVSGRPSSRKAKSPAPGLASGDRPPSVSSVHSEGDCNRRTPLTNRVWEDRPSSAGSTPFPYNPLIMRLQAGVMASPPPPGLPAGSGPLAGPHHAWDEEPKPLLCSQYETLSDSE

## CN1CCN(C2=C(Cl)C(=O)c3ccccc3C2=O)CC1
Genome polyprotein
  IC50: 6.33 µM (active)
[1]
  IC50: > 100 µM (active)
[2]
  IC50: 581 nM (active)
[3]
  AC50: 108 nM (active)
[4]
  AC50: > 100 µM (inactive)
Phospholipase A2
  IC50: 58.9 µM (inactive)
Cysteine protease ATG4B
  IC50: 2.02 µM (active)
Vero [5]
  CC50: 11.8 µM (active)
[6]
  CC50: 6.22 µM (active)
[7]
  AC50: 1.03 µM (active)

## COc1cc2nc(-c3cccc(F)c3)cc(O)c2cc1OC
[8]
  EC50: 5.44 µM (active)

## CCOC(=O)c1ccc2[nH]c3c(c2c1)CCCCC3=O
[9]
  IC50: > 93.1 µM (not active)

## CC(=O)CCSc1ncnc2sc(-c3ccccc3)cc12
[10]
  IC50: > 100 µM (active)

## CCN(CC)S(=O)(=O)c1ccc(OC)c(NC(=O)COc2ccc3c(C)cc(=O)oc3c2)c1
[11]
  IC50: 2.14 µM (active)
[12]
  IC50: 2.35 µM (active)

## Cc1cc(NO)nc(-c2ccc(Br)cc2)n1
[13]
  IC50: 728 nM (active)
[14]
  EC50: 22.8 µM (active)
H4
  EC50: 40.2 µM (active)
[15]
  EC50: 405 nM (active)

## Cc1cc(C)cc(SCc2noc(C(=O)NCCN(C)C)c2C(=O)NCCN(C)C)c1
Vero [16]
  IC50: 26.9 µM (active)

## Nc1c2c(nc3c1CCC3)CCCC2
Cells [17]
  IC50: > 33.3 µM (inactive)
[18]
  IC50: 11.7 µM (inactive)

## O=c1cc(-c2cccc(O)c2)oc2c(O)c(O)ccc12
Cytochrome P450 2C19
  AC50: 15.8 µM (inconclusive)

## CCOC(=O)c1c(NC(=O)CN2CCN(C)CC2)sc(C)c1-c1ccc(C)cc1
[19]
  AC50: 16.7 µM (active)
[20]
  AC50: 1.74 µM (active)

## CCc1cccc(N(C)C(=N)Nc2cccc3ccccc23)c1 [APTIGANEL HYDROCHLORIDE]
[21]
  IC50: > 20 µM (inactive)
[22]
  IC50: > 20 µM (inactive)
[23]
  IC50: > 20 µM (inactive)
[24]
  IC50: > 20 µM (inactive)
[25]
  IC50: > 20 µM (inactive)
[26]
  IC50: > 20 µM (inactive)
[27]
  IC50: > 20 µM (inactive)

## NCC(=O)Nc1ccc(-n2nc(C(F)(F)F)cc2-c2ccc3c(ccc4ccccc43)c2)cc1 [AR-12]
[28]
  AC50: 18.3 µM (active)
Cells [29]
  AC50: 4.39 µM (active)
[30]
  AC50: 8.29 µM (active)
